According to US20150174283A1, “Smart, Self-Decontaminating Polymer and Method for Inhibiting The Growth Of A Bacteria and Fungus” (priority 2012, published 2015):

Key:
Staphylococcus aureus = test: S. aureus growth on TSA plates with or without hydroxylamine and polymer foams; format: cell-based; details: TSA plates containing 500 uM HA, no polymer, 18 hours, 37 C
Text: The microorganism, Staphylococcus aureus (S. aureus/Staph), was utilized. Staphylococcus aureus is an important bacterium to study and ultimately have the ability to inhibit, as Staphlococcus can cause a number of diseases as a result of infection. The strain Methicillin-resistant Staphylococcus aureus or MRSA is a multi-drug resistant bacterium, making any MRSA infection difficult to treat with standard antibiotics and is thus a more dangerous infection; the number of drug-resistant MRSA cases has increase by 90% over the past decade. MRSA is the most significant infection encountered in hospital settings, costing US hospitals $3.2 to 4.2 billion annually to treat infected patients. Patients with MRSA infections often require longer hospital stays and more time spent in intensive care units. […]

[1] = chlorination of thionin by enzymes in solution (bleaching followed at 598 nm); format: biochemical; details: substrate glucose
Procedure: The chlorinating activity of composite polymers was measured by following the chlorination of a colored substrate (thionin). The thionin is a blue-violet dye that absorbs at 598 nm and undergoes bleaching (to colorless) upon chlorination. A battery of tests were carried out in 100 mM phosphate citrate buffer at pH 4.0. […] The reaction mixture comprised 1.45 mL of the thionin/NaCl solution, 30 μL of the substrate solution (glucose or peroxide), and 25 μL of the enzyme solution (total). Buffer was used to replace the enzyme or substrate in control reactions.

host cells = details: cited from earlier work

In the case of NO [HA, hydroxylamine], the S. aureus growth (Staphylococcus aureus) is reported as “does not inhibit the growth” and the S. aureus growth (Staphylococcus aureus; listed as Hydroxylamine) is reported as “not effected”.

In the case of glucose oxidase, the “absorbance of thionin at 598 nm, after two minutes” value ([1]; 20 mM NaCl, pH 4.0) is reported as 0.670 and the “color change of thionin” value ([1]; thionin/NaCl solution, two minutes) is reported as “no color change was observed”.

In the case of OO [hydrogen peroxide, Hydrogen peroxide], the “concentration toxic to the host cells” value (host cells) is given as greater than 3%.
